Experimental data reported in US20250388542A1, “ANALOGUES OF PENTAMIDINE AND USES THEREFOR” (Auransa Inc., priority 2018, published 2025).

Legend:
Test in all cases: CellTiter-Glo cytotoxicity, cancer cell line panel
Type in all cases: cell-based
HUH-6 CLONE5 = details: HUH-6 CLONE5, Hepatoblastoma carcinoma
Method: (§1) The objective of this study is to investigate potential cell killing effect of Compounds 1-15 on 3 cancer cell lines. 50% inhibition concentration (IC50) was determined for these compounds in various cancer cell lines using CellTiter-Glo™ luminescent cell viability assay at different compound concentrations. Each cell line (e.g., NCI-H209; NCI-H69; and SW1271) was treated with Compounds 1-15 and culture medium contains 0.2% [v/v] DMSO vehicle control. All the cells were cultured in the media supplemented with 10-20% fetal bovine serum at 37° C., 5% CO2 and 95% humidity.
(§2) The objective of this study is to investigate the effect of Compound 1 on cytotoxicity against 61 different types of cancer cell lines. IC50 were values were obtained using CellTiter-Glo™ as described above. Each cell line shown in Table 3 was treated with Compound 1, a standard chemotherapy drug, cisplatin, as reference control and culture medium contains 0.2% [v/v] DMSO vehicle control. All cancer cell lines were cultured in media supplemented with 10-20% fetal bovine serum at 37° C., 5% CO2 and 95% humidity.

U-87 MG = details: Homo sapiens, Glioblastoma
Method: as §1, §2

SNU-739 = details: SNU-739, Hepatocellular carcinoma
Method: as §1, §2

PLC/PRF/5 = details: Homo sapiens; PLC/PRF/5, Hepatocellular carcinoma
Method: as §1, §2

LN-229 = details: Homo sapiens; LN-229, Glioblastoma
Method: as §1, §2

SNU-423 = details: Homo sapiens; SNU-423, Hepatocellular carcinoma
Method: as §1, §2

LNCaP clone FGC = details: Homo sapiens, Prostate carcinoma
Method: as §1, §2

OS-RC-2 = details: Homo sapiens; OS-RC-2, Renal cell carcinoma
Method: as §1, §2

JHH-6 = details: JHH-6, Hepatocellular carcinoma
Method: as §1, §2

SF268 = details: Homo sapiens, SF-268; SF268, Astrocytoma
Method: as §1, §2

NOZ = details: Gallbladder carcinoma
Method: as §1, §2

SNU-387 = details: Homo sapiens; SNU-387, Hepatocellular carcinoma
Method: as §1, §2

SK-NEP-1 = details: Homo sapiens; SK-NEP-1, Ewing sarcoma
Method: as §1, §2

Hep G2/C3A = details: HepG2/C3A, Hepatoblastoma carcinoma
Method: as §1, §2

HUH-7 = details: Homo sapiens; HUH-7, Hepatocellular carcinoma
Method: as §1, §2

UO.31 = details: Homo sapiens; UO.31, Renal cell carcinoma
Method: as §1, §2

SNU-449 = details: Homo sapiens; SNU-449, Hepatocellular carcinoma
Method: as §1, §2

Caki-2 = details: Homo sapiens; Caki-2, Papillary renal cell carcinoma
Method: as §1, §2

NCI-H1975 = details: Homo sapiens; NCI-H1975, Lung adenocarcinoma
Method: as §1, §2

Saos-2 = details: Homo sapiens; Saos-2, Osteosarcoma
Method: as §1, §2

DLD-1 = details: Homo sapiens; DLD-1, Colon adenocarcinoma
Method: as §1, §2

HCCLM3 = details: Homo sapiens; HCCLM3, Hepatocellular carcinoma
Method: as §1, §2

SNU-368 = details: SNU-368, Hepatocellular carcinoma
Method: as §1, §2

A498 = details: Homo sapiens; A498, Renal cell carcinoma
Method: as §1, §2

MHCC97-H = details: Homo sapiens, MHCC97H, Hepatocellular carcinoma
Method: as §1, §2

ACHN = details: Homo sapiens, Papillary renal cell carcinoma
Method: as §1, §2

HLF = details: Hepatocellular carcinoma
Method: as §1, §2

786-O = details: Homo sapiens, 786-0, Renal cell carcinoma
Method: as §1, §2

SNU-475 = details: Homo sapiens; SNU-475, Hepatocellular carcinoma
Method: as §1, §2

SNU-761 = details: SNU-761, Hepatocellular carcinoma
Method: as §1, §2

SNU-354 = details: Homo sapiens; SNU-354, Hepatocellular carcinoma
Method: as §1, §2

Li-7 = details: Li-7, Hepatocellular carcinoma
Method: as §1, §2

RBE = details: Intrahepatic cholangiocarcinoma
Method: as §1, §2

OVCAR-3 = details: Homo sapiens; OVCAR-3, High grade ovarian serous adenocarcinoma
Method: as §1, §2

A549 = details: Homo sapiens; A549, Lung adenocarcinoma
Method: as §1, §2

JHH-1 = details: JHH1; JHH-1, Hepatocellular carcinoma
Method: as §1, §2

Work on N=C(N)c1ccc(OCCCCCOc2ccc(C(=N)N)nc2)cc1 [Compound 1, 5-(5-(4-carbamimidoylphenoxy)pentyloxy)picolinimidamide] yielded an IC50 (HUH-6 CLONE5) of 860 nM, an IC50 (U-87 MG) of 5.58 µM and an IC50 (SNU-739) of 2230 nM. The IC50 (PLC/PRF/5) was 4.13 µM, the IC50 (LN-229) was 1600 nM and the IC50 (SNU-423) was 1750 nM. For the same compound, the IC50 (LNCaP clone FGC) was 1780 nM, the IC50 (OS-RC-2) was 1700 nM and the IC50 (JHH-6) was 380 nM. It also gave an IC50 (SF268) of 750 nM, an IC50 (NOZ) of 2540 nM and an IC50 (SNU-387) of 4 µM. The IC50 (SK-NEP-1) was 1930 nM, the IC50 (Hep G2/C3A) was 230 nM and the IC50 (HUH-7) was 970 nM. For the same compound, the IC50 (UO.31) was 3.47 µM, the IC50 (SNU-449) was 1570 nM and the IC50 (Caki-2) was 4.18 µM. The IC50 (NCI-H1975) was 2660 nM, the IC50 (Saos-2) was 2390 nM and the IC50 (DLD-1) was 3.11 µM. The IC50 (HCCLM3) was 12.2 µM, the IC50 (SNU-368) was 360 nM and the IC50 (A498) was 1170 nM. For the same compound, the IC50 (MHCC97-H) was 8.31 µM, the IC50 (ACHN) was 4.64 µM and the IC50 (HLF) was 2040 nM. It also gave an IC50 (786-O) of 9.63 µM, an IC50 (SNU-475) of 1250 nM and an IC50 (SNU-761) of 3.31 µM. It also gave an IC50 (SNU-354) of 840 nM, an IC50 (Li-7) of 760 nM and an IC50 (RBE) of 1400 nM. The IC50 (OVCAR-3) was 1960 nM, the IC50 (A549) was 370 nM and the IC50 (JHH-1) was 3.87 µM.
